± gives the expanded uncertainty stated by the source.
Tests used:
[1] = 101.33 kPa, Liquid, Vibrating tube method
[2] = excess molar enthalpy (molar enthalpy of mixing); xn = mol fraction of the nth substance listed; settings: 308.15 K, 101.32 kPa, Liquid
[3] = xn = mol fraction of the nth substance listed; settings: 308.15 K, 101.32 kPa, Liquid, Vibrating tube method

SMILES: OCCOCCOCCO [triethylene glycol]
- mass density ([1]; 298.15 K): 1119.78 ± 0.57 kg/m3
- mass density ([1]; 308.15 K): 1112.61 ± 0.57 kg/m3

SMILES: OCc1ccccc1 [benzenemethanol]
- mass density ([1]; 298.15 K): 1041.46 ± 0.53 kg/m3
- mass density ([1]; 308.15 K): 1033.7 ± 0.52 kg/m3

SMILES: OCc1ccccc1 [benzenemethanol] + OCCO
- excess molar enthalpy ([2]; x2 = 0.0719): 0.0277 ± 0.0016 kcal/mol
- excess molar enthalpy ([2]; x2 = 0.1341): 0.0409 ± 0.00201 kcal/mol
- excess molar enthalpy ([2]; x2 = 0.1886): 0.0482 ± 0.00222 kcal/mol
- excess molar enthalpy ([2]; x2 = 0.2365): 0.05 ± 0.00229 kcal/mol
- excess molar enthalpy ([2]; x2 = 0.3173): 0.0512 ± 0.00232 kcal/mol
- excess molar enthalpy ([2]; x2 = 0.3826): 0.0503 ± 0.00229 kcal/mol
- excess molar enthalpy ([2]; x2 = 0.4817): 0.048 ± 0.00222 kcal/mol
- excess molar enthalpy ([2]; x2 = 0.5533): 0.0457 ± 0.00215 kcal/mol
- excess molar enthalpy ([2]; x2 = 0.6502): 0.0402 ± 0.00198 kcal/mol
- excess molar enthalpy ([2]; x2 = 0.7361): 0.0331 ± 0.00177 kcal/mol
- excess molar enthalpy ([2]; x2 = 0.788): 0.0282 ± 0.00163 kcal/mol
- excess molar enthalpy ([2]; x2 = 0.848): 0.0206 ± 0.00139 kcal/mol
- excess molar enthalpy ([2]; x2 = 0.8815): 0.017 ± 0.00127 kcal/mol
- excess molar enthalpy ([2]; x2 = 0.9177): 0.0114 ± 0.0011 kcal/mol
- excess molar enthalpy ([2]; x2 = 0.937): 0.00875 ± 0.001 kcal/mol
- excess molar enthalpy ([2]; x2 = 0.9571): 0.00602 ± 0.000932 kcal/mol
- excess molar enthalpy ([2]; x2 = 0.9781): 0.00299 ± 0.000837 kcal/mol
- mass density ([3]; x2 = 0.0395): 1035.06 ± 0.52 kg/m3
- mass density ([3]; x2 = 0.1313): 1038.54 ± 0.53 kg/m3
- mass density ([3]; x2 = 0.2622): 1044.29 ± 0.53 kg/m3
- mass density ([3]; x2 = 0.3189): 1047.1 ± 0.53 kg/m3
- mass density ([3]; x2 = 0.4645): 1055.28 ± 0.54 kg/m3
- mass density ([3]; x2 = 0.5057): 1057.9 ± 0.54 kg/m3
- mass density ([3]; x2 = 0.609): 1065.04 ± 0.54 kg/m3
- mass density ([3]; x2 = 0.6863): 1071.03 ± 0.54 kg/m3
- mass density ([3]; x2 = 0.7371): 1075.32 ± 0.55 kg/m3
- mass density ([3]; x2 = 0.8097): 1081.99 ± 0.55 kg/m3
- mass density ([3]; x2 = 0.879): 1088.96 ± 0.55 kg/m3
- mass density ([3]; x2 = 0.9638): 1098.48 ± 0.56 kg/m3

SMILES: OCc1ccccc1 [benzenemethanol] + OCCOCCOCCO
- excess molar enthalpy ([2]; x2 = 0.0313): -0.0333 ± 0.000908 kcal/mol
- excess molar enthalpy ([2]; x2 = 0.0606): -0.0576 ± 0.00129 kcal/mol
- excess molar enthalpy ([2]; x2 = 0.0883): -0.0752 ± 0.0016 kcal/mol
- excess molar enthalpy ([2]; x2 = 0.1143): -0.0883 ± 0.00182 kcal/mol
- excess molar enthalpy ([2]; x2 = 0.1623): -0.104 ± 0.00208 kcal/mol
- excess molar enthalpy ([2]; x2 = 0.2047): -0.111 ± 0.00222 kcal/mol
- excess molar enthalpy ([2]; x2 = 0.2792): -0.118 ± 0.00232 kcal/mol
- excess molar enthalpy ([2]; x2 = 0.3405): -0.12 ± 0.00237 kcal/mol
- excess molar enthalpy ([2]; x2 = 0.4366): -0.121 ± 0.00237 kcal/mol
- excess molar enthalpy ([2]; x2 = 0.5376): -0.121 ± 0.00237 kcal/mol
- excess molar enthalpy ([2]; x2 = 0.6078): -0.12 ± 0.00237 kcal/mol
- excess molar enthalpy ([2]; x2 = 0.6992): -0.109 ± 0.00217 kcal/mol
- excess molar enthalpy ([2]; x2 = 0.756): -0.0968 ± 0.00196 kcal/mol
- excess molar enthalpy ([2]; x2 = 0.823): -0.0791 ± 0.00165 kcal/mol
- excess molar enthalpy ([2]; x2 = 0.8613): -0.0665 ± 0.00143 kcal/mol
- excess molar enthalpy ([2]; x2 = 0.9029): -0.0502 ± 0.00117 kcal/mol
- excess molar enthalpy ([2]; x2 = 0.949): -0.0239 ± 0.000741 kcal/mol
- mass density ([3]; x2 = 0.0519): 1039.48 ± 0.53 kg/m3
- mass density ([3]; x2 = 0.174): 1051.93 ± 0.53 kg/m3
- mass density ([3]; x2 = 0.2411): 1058.18 ± 0.54 kg/m3
- mass density ([3]; x2 = 0.3373): 1066.69 ± 0.54 kg/m3
- mass density ([3]; x2 = 0.4327): 1074.57 ± 0.55 kg/m3
- mass density ([3]; x2 = 0.5295): 1082.04 ± 0.55 kg/m3
- mass density ([3]; x2 = 0.632): 1089.43 ± 0.55 kg/m3
- mass density ([3]; x2 = 0.7533): 1097.6 ± 0.56 kg/m3
- mass density ([3]; x2 = 0.8256): 1102.12 ± 0.56 kg/m3
- mass density ([3]; x2 = 0.8572): 1104.07 ± 0.56 kg/m3
- mass density ([3]; x2 = 0.9337): 1108.5 ± 0.56 kg/m3
- mass density ([3]; x2 = 0.961): 1110.01 ± 0.57 kg/m3

SMILES: OCCOCCO [diethylene glycol]
- mass density ([1]; 298.15 K): 1112.38 ± 0.57 kg/m3
- mass density ([1]; 308.15 K): 1105.88 ± 0.56 kg/m3

SMILES: OCc1ccccc1 [benzenemethanol] + OCCOCCO
- excess molar enthalpy ([2]; x2 = 0.0434): -0.0338 ± 0.00179 kcal/mol
- excess molar enthalpy ([2]; x2 = 0.0833): -0.0564 ± 0.00239 kcal/mol
- excess molar enthalpy ([2]; x2 = 0.1199): -0.0717 ± 0.00287 kcal/mol
- excess molar enthalpy ([2]; x2 = 0.1537): -0.0822 ± 0.00335 kcal/mol
- excess molar enthalpy ([2]; x2 = 0.2142): -0.0945 ± 0.00359 kcal/mol
- excess molar enthalpy ([2]; x2 = 0.2665): -0.101 ± 0.00382 kcal/mol
- excess molar enthalpy ([2]; x2 = 0.3528): -0.105 ± 0.00406 kcal/mol
- excess molar enthalpy ([2]; x2 = 0.4208): -0.107 ± 0.00406 kcal/mol
- excess molar enthalpy ([2]; x2 = 0.5216): -0.109 ± 0.00406 kcal/mol
- excess molar enthalpy ([2]; x2 = 0.6206): -0.107 ± 0.00406 kcal/mol
- excess molar enthalpy ([2]; x2 = 0.6856): -0.102 ± 0.00382 kcal/mol
- excess molar enthalpy ([2]; x2 = 0.7658): -0.0887 ± 0.00359 kcal/mol
- excess molar enthalpy ([2]; x2 = 0.8135): -0.0791 ± 0.00311 kcal/mol
- excess molar enthalpy ([2]; x2 = 0.8674): -0.0599 ± 0.00263 kcal/mol
- excess molar enthalpy ([2]; x2 = 0.897): -0.0501 ± 0.00229 kcal/mol
- excess molar enthalpy ([2]; x2 = 0.929): -0.0362 ± 0.00186 kcal/mol
- excess molar enthalpy ([2]; x2 = 0.9632): -0.0197 ± 0.00136 kcal/mol
- mass density ([3]; x2 = 0.0719): 1038.79 ± 0.53 kg/m3
- mass density ([3]; x2 = 0.1308): 1042.93 ± 0.53 kg/m3
- mass density ([3]; x2 = 0.2285): 1049.76 ± 0.53 kg/m3
- mass density ([3]; x2 = 0.3115): 1055.63 ± 0.54 kg/m3
- mass density ([3]; x2 = 0.4139): 1062.92 ± 0.54 kg/m3
- mass density ([3]; x2 = 0.5312): 1071.36 ± 0.54 kg/m3
- mass density ([3]; x2 = 0.6035): 1076.6 ± 0.55 kg/m3
- mass density ([3]; x2 = 0.7277): 1085.7 ± 0.55 kg/m3
- mass density ([3]; x2 = 0.8237): 1092.77 ± 0.56 kg/m3
- mass density ([3]; x2 = 0.8597): 1095.43 ± 0.56 kg/m3
- mass density ([3]; x2 = 0.8984): 1098.29 ± 0.56 kg/m3
- mass density ([3]; x2 = 0.9539): 1102.43 ± 0.56 kg/m3

From the NIST ThermoML archive (doi:10.1021/je0342062)
